In patent publication US4327097A, “Novel penicillins” (Toyama Chemical Co., Ltd., priority 1974, dated 1982):
Converted amounts (≈) assume the structure as drawn.

Assays:
Type in all cases: cell-based
Escherichia coli NIHJ = assay: MIC, plate method, standard strains; conditions: Table 3, standard strain; unit assumed
Method: (§1) The minimum inhibitory concentration (MIC) was determined by the plate method disclosed in "Chemotherapy" (Japan), Vol. 16, (1968), pages 98-99. The culture medium used was a Heart infusion agar (pH 7.4). The number of the cells per plate used in the inoculum was 10^4 (10^6 cells/ml).

[1] = test system: Staphylococcus aureus 209p; assay: MIC, plate method, standard strains; conditions: Table 3, standard strain, Heart infusion agar pH 7.4; unit assumed
Method: as §1

Proteus vulgaris 3027 = assay: MIC, plate method, standard strains; conditions: Table 3, standard strain; unit assumed
Method: as §1

Pseudomonas aeruginosa = assay: MIC against clinical isolates; conditions: unit assumed
Klebsiella pneumoniae [2] = assay: MIC, plate method, standard strains; conditions: Table 3, standard strain; unit assumed
Method: as §1

[3] = test system: Pseudomonas aeruginosa I.F.O.; assay: MIC, plate method, standard strains; conditions: Table 3, standard strain; unit assumed
Method: as §1

Staphylococcus aureus = assay: MIC against clinical isolates; conditions: Table 5-1, clinical isolate; unit assumed
Escherichia coli = assay: MIC against clinical isolates; conditions: Table 5-2, clinical isolate; unit assumed
Klebsiella pneumoniae [4] = assay: MIC against clinical isolates; conditions: Table 5-4, clinical isolate; unit assumed
Shigella flexneri = assay: MIC against clinical isolates; conditions: Table 5-5, clinical isolate; unit assumed
Method: as §1
(§2) MIC was determined in the same manner as in the preceding paragraph (1).

Shigella sonnei = assay: MIC against clinical isolates; conditions: Table 5-5, clinical isolate; unit assumed
Method: as §1, §2

Structure (SMILES): CC1(C)SC2C(NC(=O)C(NC(=O)N3CCN(C4CCCC4)C(=O)C3)c3ccccc3)C(=O)N2C1C(=O)O (single isomer, unassigned) [Compound 32]
- MIC Esche--richin coil NIHJ (Escherichia coli NIHJ): < 1.57 µg/mL
- MIC Staphylococcus aureus 209p [1]: < 1.57 µg/mL

Structure (SMILES): CC(=O)OCCN1CCN(C(=O)NC(C(=O)NC2C(=O)N3C2SC(C)(C)C3C(=O)O)c2ccccc2)C(=O)C1=O (single isomer, unassigned) [Compound 41]
- MIC Esche--richin coil NIHJ (Escherichia coli NIHJ): < 1.57 µg/mL
- MIC Proteus vulgaris 3027 (Proteus vulgaris 3027): < 1.57 µg/mL
- MIC Staphylococcus aureus 209p [1]: < 1.57 µg/mL

Structure (SMILES): C=CCN1CCN(C(=O)NC(C(=O)NC2C(=O)N3C2SC(C)(C)C3C(=O)O)c2ccccc2)C(=O)C1=O (single isomer, unassigned) [Compound 42]
- MIC Esche--richin coil NIHJ (Escherichia coli NIHJ): < 1.57 µg/mL
- MIC Proteus vulgaris 3027 (Proteus vulgaris 3027): < 1.57 µg/mL

Structure (SMILES): CC1(C)SC2C(NC(=O)C(NC(=O)N3CCN(c4ccccc4)C(=O)C3=O)c3ccccc3)C(=O)N2C1C(=O)O (single isomer, unassigned) [Compound 43]
- MIC Esche--richin coil NIHJ (Escherichia coli NIHJ): < 1.57 µg/mL
- MIC Proteus vulgaris 3027 (Proteus vulgaris 3027): < 1.57 µg/mL
- MIC Staphylococcus aureus 209p [1]: < 1.57 µg/mL

Structure (SMILES): CC(=O)OCC1=C(C(=O)O)N2C(=O)C(NC(=O)C(NC(=O)N3CCN(C)C(=O)C3=O)c3ccccc3)C2SC1 (single isomer, unassigned) [Compound No. 60]
- MIC Pseudomonas aeruginosa GN4 (Pseudomonas aeruginosa; Table 6-3, clinical isolate): 50 µg/mL (≈ 89.4 µM)
- MIC Pseudomonas aeruginosa GN 82 (Pseudomonas aeruginosa; Table 6-3, clinical isolate): 50 µg/mL (≈ 89.4 µM)
- MIC Pseudomonas aeruginosa GN 376 (Pseudomonas aeruginosa; Table 6-3, clinical isolate): 50 µg/mL (≈ 89.4 µM)
- MIC Pseudomonas aeruginosa GN 2987 (Pseudomonas aeruginosa; Table 6-3, clinical isolate): 50 µg/mL (≈ 89.4 µM)

Structure (SMILES): Cc1nnc(SCC2=C(C(=O)O)N3C(=O)C(NC(=O)C(NC(=O)N4CCN(C)C(=O)C4=O)c4ccccc4)C3SC2)s1 (single isomer, unassigned) [Compound No. 62]
- MIC Pseudomonas aeruginosa GN4 (Pseudomonas aeruginosa; Table 6-3, clinical isolate): 100 µg/mL (≈ 158 µM)
- MIC Pseudomonas aeruginosa GN 82 (Pseudomonas aeruginosa; Table 6-3, clinical isolate): 100 µg/mL (≈ 158 µM)
- MIC Pseudomonas aeruginosa GN 376 (Pseudomonas aeruginosa; Table 6-3, clinical isolate): 100 µg/mL (≈ 158 µM)
- MIC Pseudomonas aeruginosa GN 2565 (Pseudomonas aeruginosa; Table 6-3, clinical isolate): 100 µg/mL (≈ 158 µM)

Structure (SMILES): CN1CCN(C(=O)NC(C(=O)NC2C(=O)N3C2SC(C)(C)C3C(=O)O)c2ccc(O)cc2)C(=O)C1=O (single isomer, unassigned) [compound 48]
- MIC Esche--richin coil NIHJ (Escherichia coli NIHJ): < 0.4 µg/mL
- MIC Proteus vulgaris 3027 (Proteus vulgaris 3027): < 0.4 µg/mL
- MIC Staphylococcus aureus 209p [1]: < 0.4 µg/mL

Structure (SMILES): CN1CCN(C(=O)N[C@@H](C(=O)N[C@@H]2C(=O)N3[C@@H]2SC(C)(C)[C@@H]3C(=O)OC2OC(=O)c3ccccc32)c2ccccc2)C(=O)C1=O (single isomer, unassigned) [compound 49]
- MIC Staphylococcus aureus 209p [1]: < 0.4 µg/mL

Structure (SMILES): COCOC(=O)C1N2C(=O)C(NC(=O)C(NC(=O)N3CCN(C)C(=O)C3=O)c3ccccc3)C2SC1(C)C (single isomer, unassigned) [compound 50]
- MIC Esche--richin coil NIHJ (Escherichia coli NIHJ): < 0.79 µg/mL
- MIC Proteus vulgaris 3027 (Proteus vulgaris 3027): < 0.79 µg/mL
- MIC Staphylococcus aureus 209p [1]: < 0.79 µg/mL

Structure (SMILES): CCCCCCCCN1CCN(C(=O)NC(C(=O)NC2C(=O)N3C2SC(C)(C)C3C(=O)OCOC)c2ccccc2)C(=O)C1=O (single isomer, unassigned) [compound 51]
- MIC Esche--richin coil NIHJ (Escherichia coli NIHJ): < 0.4 µg/mL
- MIC Klebsiella pneumoniae (Klebsiella pneumoniae [2]): < 0.4 µg/mL
- MIC Proteus vulgaris 3027 (Proteus vulgaris 3027): < 0.4 µg/mL
- MIC Staphylococcus aureus 209p [1]: < 0.4 µg/mL

Structure (SMILES): CN1CCN(C(=O)NC(C(=O)NC2C(=O)N3C2SC(C)(C)C3C(=O)OCCN2CCCCC2)c2ccccc2)C(=O)C1=O (single isomer, unassigned) [compound 53]
- MIC Esche--richin coil NIHJ (Escherichia coli NIHJ): < 0.4 µg/mL

Structure (SMILES): CC1(C)S[C@@H]2[C@H](NC(=O)[C@H](NC(=O)N3CCN(C(=O)c4ccc(Cl)cc4)CC3=O)c3ccccc3)C(=O)N2[C@H]1C(=O)O [Compound 8]
- MIC Proteus vulgaris 3027 (Proteus vulgaris 3027): 3.13 µg/mL (≈ 5.1 µM)
- MIC Pseudomonas aeruginosa I.F.C [3]: 100 µg/mL (≈ 163 µM)

Structure (SMILES): CCCCCCN1CCN(C(=O)N[C@@H](C(=O)N[C@@H]2C(=O)N3[C@@H]2SC(C)(C)[C@@H]3C(=O)O)c2ccccc2)C(=O)C1 [Compound 13]
- MIC Esche--richin coil NIHJ (Escherichia coli NIHJ): < 1.57 µg/mL
- MIC Klebsiella pneumoniae (Klebsiella pneumoniae [2]): < 1.57 µg/mL
- MIC Proteus vulgaris 3027 (Proteus vulgaris 3027): < 1.57 µg/mL
- MIC Staphylococcus aureus 209p [1]: < 1.57 µg/mL
- MIC Staphylococcus aureus F-1 (Staphylococcus aureus): 12.5 µg/mL (≈ 22.3 µM)
- MIC Staphylococcus aureus F-2 (Staphylococcus aureus): 1.57 µg/mL (≈ 2.81 µM)
- MIC Staphylococcus aureus F-4 (Staphylococcus aureus): 6.25 µg/mL (≈ 11.2 µM)
- MIC Staphylococcus aureus MS 8588 (Staphylococcus aureus): 3.13 µg/mL (≈ 5.59 µM)
- MIC Staphylococcus aureus MS 8596 (Staphylococcus aureus): 3.13 µg/mL (≈ 5.59 µM)
- MIC Staphylococcus aureus MS 8684 (Staphylococcus aureus): 3.13 µg/mL (≈ 5.59 µM)
- MIC Staphylococcus aureus MS 8713 (Staphylococcus aureus): 3.13 µg/mL (≈ 5.59 µM)
- MIC Escherichia coli GN 3435 (Escherichia coli): 3.13 µg/mL (≈ 5.59 µM)
- MIC Escherichia coli GN 3452 (Escherichia coli): 3.13 µg/mL (≈ 5.59 µM)
- MIC Escherichia coli GN 3481 (Escherichia coli): 6.25 µg/mL (≈ 11.2 µM)
- MIC Escherichia coli K-1 (Escherichia coli): 3.13 µg/mL (≈ 5.59 µM)
- MIC Escherichia coli K-2 (Escherichia coli): 6.25 µg/mL (≈ 11.2 µM)
- MIC Escherichia coli K-4 (Escherichia coli): 6.25 µg/mL (≈ 11.2 µM)
- MIC Pseudomonas aeruginosa GN 2987 (Pseudomonas aeruginosa; Table 5-3, clinical isolate): 12.5 µg/mL (≈ 22.3 µM)
- MIC Klebsiella pneumoniae GN 917 (Klebsiella pneumoniae [4]): 12.5 µg/mL (≈ 22.3 µM)
- MIC Klebsiella pneumoniae GN 3850 (Klebsiella pneumoniae [4]): 6.25 µg/mL (≈ 11.2 µM)
- MIC Shigella flexneri JS 11215 (Shigella flexneri): 12.5 µg/mL (≈ 22.3 µM)
- MIC Shigella flexneri JS 11839 (Shigella flexneri): 1.57 µg/mL (≈ 2.81 µM)
- MIC Shigella sonnei JS 11232 (Shigella sonnei): 12.5 µg/mL (≈ 22.3 µM)
- MIC Shigella sonnei JS 11755 (Shigella sonnei): 3.13 µg/mL (≈ 5.59 µM)
